Measurements: article PMC9268013, “Design, Synthesis, and Biological Evaluation of N14-Amino Acid-Substituted Tetrandrine Derivatives as Potential Antitumor Agents against Human Colorectal Cancer” (Molecules, 2022)
Several values for one entry are separate records, joined by “and”; a condition that tells them apart may be missing. Equal entries are not always repeated.

Columns and labels:
[1] = test system: human lung cancer cells (A549); assay: MTT antiproliferative assay, A549; type: cell-based
Experimental: (§1) Human lung cancer cell (A549,), human umbilical vein endothelial cells (HUVECs,), human colon cancer cell lines (HCT-15), human breast cancer cells (MCF-7), human liver cancer cells (HepG2), human pancreatic cancer cells (BxPC-3), and human hepatic cell line (L-02) were obtained from the Sichuan University. A549, HUVECs, and L-02 were cultured in DMEM medium (high glucose, HyClone, GE Healthcare, Sydney, Australia). Human colon cancer cell lines HCT-15, human pancreatic cancer cells […] BxPC-3 were cultured in RPMI-1640. Human breast cancer cells MCF-7 and human liver cancer cells HepG2 were cultured in MEM medium. All the mediums, including 10% fetal bovine serum (FBS, HyClone, GE Healthcare, Sydney, Australia) and 1% ampicillin/streptomycin, were used to culture the above cells at 37 °C in a humidified atmosphere (5% CO2 and 95% air).
(§2) The antiproliferative activity of the title compounds was determined using the MTT (3-(4,5-dimethylthiazol-2-yl)-2,5-diphenyltetrazolium bromide, Sigma-Aldrich, Saint Louis, MO, USA) assay on different cells. Cells lines were seeded into 96-well plates at a density of 2000 to 6000 cells/well. DMSO was used to dissolve the test compounds, and TET was used as a positive control. After 24 h, the test compounds were added at different concentrations (0.625, 1.25, 2.5, 5, 10, and 20 μM) and incubated at 37 °C for 72 h. MTT was added to each well at a final concentration of 0.5 mg/mL and incubated at 37 °C for 4 h. Then, 150 μL of DMSO was added to each well to dissolve the formazan crystals. The absorbance was measured at 570 nm by a microplate reader (ELX800UV, Bio-Tek, Windoski, VT, USA). All measurements were repeated at least three times under the same conditions. Graphpad Prism 8.0 was used to calculate the IC50 values.

[2] = test system: human pancreatic cancer cells (BxPC-3); assay: MTT antiproliferative assay, BxPC-3; type: cell-based
Experimental: as §1, §2

[3] = test system: human normal hepatocyte cells (L-02); assay: MTT toxicity assay, normal hepatocytes L-02; type: cell-based; details: 72 h, normal hepatocyte L-02 (toxicity), read-out: Antiproliferative Activity (IC50/μM) L-02
Experimental: as §1, §2

[4] = Aqueous solubility determination by HPLC; type: physicochemical; details: neutral water, vs TET
Experimental: Briefly, each tested compound (10 mg) was dissolved in 10 mL of CH3OH, and the standard solution (0.5 mL) was used to determine the wavelength of maximum absorbance by HPLC. The solution was diluted as necessary, and the solubility was determined by linear regression with R^2 > 0.999. Each tested compound (5 mg) was ultrasound dissolved in 3 mL of pure water for 1 h at room temperature, and the mixture was then […] at 3000 rpm for 15 min. The saturated supernatants were determined by HPLC at the wavelength of the maximum absorption, and the absorbances were obtained. The solubility was calculated according to the standard curve.

HCT-15 cells [5] = assay: Colony formation assay; type: cell-based, human; details: HCT-15, 0.625 μM, 10 d
Experimental: HCT-15 cells were diluted in 2 mL of culture medium and plated in six-well plates at 37 °C in 5% CO2. After an overnight incubation, compound 16 (0.625, 1.25, 2.5, 5, and 10 μM) was added, and the cells were cultured for 10 d. Afterwards, the medium was replaced. The cells were washed by cold PBS and fixed with 4% paraformaldehyde. Finally, the cell colonies were stained with a 1% crystal violet solution for 20 min. The plates were recorded, and the colonies were counted digitally using ImageJ software with customized macros.

HCT-15 cells [6] = assay: Wound healing (migration) assay, HCT-15; type: cell-based, human; details: 24 h, control approximately 46%
Experimental: HCT-15 cells or HUVECs were seeded in six-well culture plates and allowed to grow to 80–90% confluence. Subsequently, a cell-free line was manually created by scratching the confluent cell monolayers with a 200 μL sterile pipette tip, and the detached cells were washed with PBS. The cells were then incubated with 10% FBS and different concentrations of 16 (0.625, 1.25, 2.5, 5, and 10 μM). Then, 24 h later, images of the same location were obtained using a microscope (Nikon ECLIPSE TE2000-U, Tokyo, Japan). Each experiment was carried out at least three times.

HCT-15 cells [7] = assay: Flow cytometry Annexin V-FITC/PI apoptosis analysis; type: cell-based, human; details: 48 h
Experimental: HCT-15 cells were cultured in complete medium in six-well plates for 24 h, and […]. 2.5, 5 μM of 16 was added in triplicate for 48 h incubation. The cells were digested with trypsin without EDTA, washed twice with cold PBS, and resuspended in 500 μL binding buffer. The cell suspension was stained successively with 5 μL Annexin V-FITC and 5 μL PI (Keygen Biotech, Nanjing, China), and cultured for 15 min and 5 min in total dark, respectively. Afterwards, the percentages of apoptotic cells were determined by a flow cytometry. Data were analyzed by FlowJo software (Version 10, FlowJo, LLC, Ashland, OR, USA).

Bax/Bcl-2 = assay: Western blot, Bax/Bcl-2 in HCT-15 cells; type: cell-based, human; details: HCT-15, only at 5 μM, p < 0.05
Experimental: (§3) The protein levels in HCT-15 cells were evaluated via Western blot analysis. The cells were cultured in dishes (10^7 cells per dish) and incubated overnight at 37 °C, 0.625, 1.25, 2.5, and 5 μM of 16 was added in triplicate after 24 h of incubation. Then, the cells were harvested and lysed in Laemmli buffer (glycerol, 1M TRIS pH 6.8, 1% SDS, MQ H2O and 20% β-mercaptoethanol). The samples were boiled for 5 min at 95 °C, and the protein content was determined using a BCA kit. Equal amounts of 30 μg of sample were placed on a Tris/HCl gel and separated by SDS-PAGE electrophoresis. Then, the samples were transferred to a PVDF membrane (Milibo, Co., Ltd., Billyka, MA, USA) and blocked with 5% skimmed milk powder for 2 h. Diluted primary antibodies Bcl-2 (1:3000), Bax (1:10,000), caspase-3 (l:2000), p62 (1:1000), Beclin1 (1:1000), LC3 (1:2000), and β-actin (1:1000) were incubated overnight at 4 °C, followed by a horseradish peroxidase-conjugated goat anti-rabbit IgG secondary antibody (ProteinTech, China) for 2 h at room temperature. Then, immunoreactivity was developed with diaminobenzidine solution, and scanned and recorded by a gel imaging system (G:BOX Chemi XL1.4, Frederick, MD, USA).

caspase-3 = assay: Western blot, caspase-3 in HCT-15 cells; type: cell-based, human; details: HCT-15, 0.625, 1.25, and 2.5 μM, p < 0.05, no concentration dependence
Experimental: as §3

Q: With COc1cc(NC(=O)[C@@H]2CCCN2)c2cc1Oc1ccc(cc1)C[C@H]1c3cc(c(OC)cc3CCN1C)Oc1c(OC)c(OC)cc3c1[C@H](C2)N(C)CC3 [Compound 16, 14-N-(L-proline)-tetrandrine] as the molecule, how does the IC50 ([1]; 72 h) read?
A: Its IC50 is 1.19 ± 0.01 µM.

Q: And the IC50 ([1]; Homo sapiens, A549, 72 h)?
A: Its IC50 is less than 1.5 µM.

Q: And the IC50 ([2]; 72 h)?
A: The IC50 was 1.12 ± 0.1 µM.

Q: What about the IC50 ([2]; Homo sapiens, BXPC-3, 72 h) of the same molecule?
A: Its IC50 is less than 1.5 µM.

Q: What about the IC50 [3] of the same molecule?
A: Its IC50 is greater than 20 µM.

Q: What about the “Increase of aqueous solubility compared to TET” value [4] of the same molecule?
A: Its value is > 5 fold and 5 fold.

Q: What about the Colony formation (HCT-15 cells [5]) of the same molecule?
A: Its Colony formation is “very few colonies”.

Q: And the “Scratched area covered (migration rate)” value (HCT-15 cells [6]; HCT-15, 5 μM)?
A: The value was 14.1%.

Q: What about the “Scratched area covered (migration rate)” value (HCT-15 cells [6]; HCT-15, 10 μM) of the same molecule?
A: Its value is 10.5%.

Q: What about the Apoptotic rate (HCT-15 cells [7]; HCT-15, 2.5 μM) of the same molecule?
A: The Apoptotic rate was 25.4%.

Q: What about the Apoptotic rate (HCT-15 cells [7]; HCT-15, 5 μM) of the same molecule?
A: The Apoptotic rate was 52.7%.

Q: And the Necrotic rate (HCT-15 cells [7]; HCT-15, 5 μM)?
A: Its Necrotic rate is 35.5%.

Q: What about the “Ratio of Bax/Bcl-2” value (Bax/Bcl-2) of the same molecule?
A: The value was “enhanced”.

Q: And the Caspase-3 level (caspase-3)?
A: Its Caspase-3 level is “significantly decreased”.
